# Data published in patent US7647217B2, “Structure of the farnesoid X receptor ligand binding domain and methods of use therefor” (The Salk Institute for Biological Studies, priority 2002, dated 2010).
# “And” between values parts separate entries of the source, which are not always exact repeats. Identical values can stand only once.
# What was measured:
# [1] = target: T1, FXR (Mus musculus, UniProt Q60641); assay: Cell-based screen: full-length FXR expression vector co-transfected with hormone response element luciferase reporter; details: FXR agonist activity
# T1 construct: expression vector containing the full-length FXR receptor; expressed in transfected cells
# T1 sequence (Q60641 1-488): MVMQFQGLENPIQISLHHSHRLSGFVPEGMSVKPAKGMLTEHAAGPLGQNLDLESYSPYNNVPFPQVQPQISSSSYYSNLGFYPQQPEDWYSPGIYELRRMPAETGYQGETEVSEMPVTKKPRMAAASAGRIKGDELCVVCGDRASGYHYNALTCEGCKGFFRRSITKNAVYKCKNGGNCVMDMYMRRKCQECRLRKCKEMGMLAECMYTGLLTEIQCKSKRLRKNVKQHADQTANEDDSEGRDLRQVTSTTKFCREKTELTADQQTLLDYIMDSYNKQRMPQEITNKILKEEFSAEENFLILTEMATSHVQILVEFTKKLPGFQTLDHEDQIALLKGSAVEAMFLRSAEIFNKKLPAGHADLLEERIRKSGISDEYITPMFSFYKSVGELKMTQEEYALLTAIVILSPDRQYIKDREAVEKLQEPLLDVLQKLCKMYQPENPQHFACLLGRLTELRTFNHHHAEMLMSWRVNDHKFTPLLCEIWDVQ
# T1 sequence (P19793 1-462 partner): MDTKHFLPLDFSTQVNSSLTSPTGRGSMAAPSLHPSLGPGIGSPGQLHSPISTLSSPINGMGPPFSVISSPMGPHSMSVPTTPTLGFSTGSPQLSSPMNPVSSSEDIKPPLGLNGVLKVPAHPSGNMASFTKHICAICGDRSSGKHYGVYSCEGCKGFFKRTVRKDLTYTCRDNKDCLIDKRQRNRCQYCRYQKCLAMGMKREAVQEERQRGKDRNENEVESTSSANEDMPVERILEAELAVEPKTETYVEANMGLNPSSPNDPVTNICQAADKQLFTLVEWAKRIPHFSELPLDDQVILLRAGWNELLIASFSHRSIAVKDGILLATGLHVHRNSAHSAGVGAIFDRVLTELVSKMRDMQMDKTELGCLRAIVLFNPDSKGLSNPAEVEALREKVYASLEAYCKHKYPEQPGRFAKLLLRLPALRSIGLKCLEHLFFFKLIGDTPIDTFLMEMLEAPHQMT
# Protocol: (§1) For transfection of these constructs, monkey CV-1 HEPG2 and HEK293T cells were grown in DMEM supplemented with 10% FBS, 50 U/ml penicillin G, and 50 μg/ml streptomycin sulfate at 37° C. in 7% CO2. CV-1 cells (60%-70% confluence, 48-well plate) were cotransfected with 16.6 ng of the appropriate expression vector, 100 ng of reporter plasmid, and 100 ng of pCMX-LacZ in 200 μl of DMEM containing 10% FBS by the N-[1-(2,3-dioleoyloxy)propyl]-N,N,N-trimethylammonium methylsulfate (DOTAP)-mediated procedure. After 24 hr, the medium was replaced, and cells were harvested and assayed for luciferase activity 36-48 hr after transfection. The luciferase activity was normalized to the level of β-galactosidase activity. Each transfection was performed in triplicate and repeated at least three times.
# To discover novel small molecule ligands for FXR, a constructed combinatorial library of approximately 10 000 benzopyran compounds was screened using a cell-based assay in a 384 well format (Nicolaou et al. (2000). Natural product-like combinatorial libraries based on privileged structures. 1. General principles and solid-phase synthesis of benzopyrans. J. Am. Chem. Soc. 122, 9939-9953; Natural product-like combinatorial libraries based on privileged structures. 2. Construction of a 10000-membered benzopyran library by directed split-and-pool chemistry using nanokans and optical encoding. J. Am. Chem. Soc. 122, 9954-9967; and Natural product-like combinatorial libraries based on privileged structures. 3. The “libraries from libraries” principle for diversity enhancement of benzopyran libraries. J. Am. Chem. Soc. 122, 9968-9976). This cell-based screen was based on the co-transfection of an expression vector containing the full-length FXR receptor with a reporter vector. The reporter vector contains a hormone response element under a minimal eukaryotic promoter driving a luciferase reporter gene. […] Lead compounds were re-tested and checked for cross-reactivity for the retinoid X receptor (RXR), the heterodimeric partner of FXR. None of the identified compounds had the ability to bind or activate RXR.
# Systematic optimization of regions I and II of the prototypical structure through multiple rounds of screening using smaller “focused” chemical libraries defined the requisite features of these domains for high affinity binding to FXR. […] This intelligence gathering was then used to design and synthesize on a solid support a focused library of 94 new compounds for further optimization.
# [2] = target: T2, mouse FXR (Mus musculus, UniProt Q60641); assay: CV-1 reporter gene assay, mFXR/hRXR with TK minimal, TK-ECRE*6 or TK-ER8*2 luciferase reporter; format: cell-based; details: for activity on FXRE reporters / concentration at which maximal activity is achieved: ECRE and ER-8 reporters; for activation of ECRE FXRE reporter: CV-1, TK-ECRE*6; for activation of ER-8 FXRE reporter: CV-1, TK-ER8*2
# T2 construct: expressed in transfected cells; host or cells: CV-1 (monkey)
# T2 sequence (Q60641 1-488): T1 sequence (Q60641 1-488)
# T2 sequence (P19793 1-462 partner): T1 sequence (P19793 1-462 partner)
# Protocol: FIGS. 2A-2F collectively show the results of ligand activation of CV-1 cells co-transfected with FXR constructs pCMX-mFXR and pCMX-hRXR and a luciferase reporter gene containing various promoters as follows: FIG. 2A with a minimal TK promoter, FIG. 2B with a TK-ECRE*6 promoter, FIG. 2C with a TK-ER8*2 promoter, FIG. 2D with HIBABP promoter, FIG. 2E with a hPLTP promoter, or FIG. 2 with a FhMRP-2 promoter.
# as §1
# The ability of these compounds to activate the receptor in a number of different cell-based reporter gene assays was then determined. […] CV-1 cells were transiently transfected with an expression plasmid for mouse FXR and human RXR with a thymidine kinase (minimal promoter reporter vector containing either no copies or six copies of the ecdysone response element (ECRE), a well-characterized FXR response element (FXRE). In addition, two copies of the recently identified FXRE everted repeat separated by 8 nucleotides (ER-8) was also studied (see, for example, Laffitte et al. (2000). Identification of the DNA binding specificity and potential target genes for the farnesoid X-activated receptor. J Biol. Chem. 275(14), 10638-47; Kast et al. (2002). Regulation of multidrug resistance-associated protein 2 (ABCC2) by the nuclear receptors pregnane X receptor, farnesoid X-activated receptor, and constitutive androstane receptor. J Biol Chem. 277(4), 2908-15).
# Similar results were found in a variety of different cell types including liver cells (HEPG2) and kidney cells (HEK 293).
Structure (SMILES),EC50 [1],activity on FXRE reporters [2],activation of ECRE FXRE reporter [2] [fold],activation of ER-8 FXRE reporter [2] [fold],concentration at which maximal activity is achieved [2] [µM],activity on minimal TK promoter ([2]; reporter without FXRE)
"CC(C)c1onc(-c2c(Cl)cccc2Cl)c1COc1ccc(/C=C/c2cccc(C(=O)O)c2)c(Cl)c1 [GW4064, reference compound]",~90 nM and 80 nM,,100,4,1,less than 2 fold
COC(=O)/C=C/c1cccc(N(Cc2ccc(-c3ccc4c(c3)OCO4)cc2)C(=O)C2CCCCC2)c1 [fexarine],38 nM,,100,4,1,
COC(=O)/C=C/c1cccc(N(Cc2ccc(-c3ccc(N(C)C)cc3)cc2)C(=O)C2CCCCC2)c1 [fexaramine],25 nM,,100,4,1,
COC(=O)/C=C/c1cccc(N(Cc2ccc(/C=C/c3ccccc3)cc2)C(=O)C2CCCCC2)c1 [fexarene],36 nM,,100,4,1,

# Second part, led by results:
EC50 [1],activity on FXRE reporters [2],activation of ECRE FXRE reporter [2] [fold],activation of ER-8 FXRE reporter [2] [fold],concentration at which maximal activity is achieved [2] [µM],Structure (SMILES),activity on minimal TK promoter ([2]; reporter without FXRE)
377 nM,little or no activity,,,,COC(=O)/C=C/c1cccc(N(Cc2ccc(-c3ccccc3OC)cc2)C(=O)C(C)C)c1 [SRI-1],
343 nM,little or no activity,,,,COC(=O)/C=C/c1cccc(N(Cc2ccc(-c3ccc(C(C)(C)C)cc3)cc2)C(=O)C(C)C)c1 [SRI-2],
